Experimental data reported in patent US11198713B2, “Agents modulating beta-catenin functions and methods thereof” (FOG PHARMACEUTICALS, INC., priority 2017, dated 2021).
Converted amounts (≈) assume the structure as drawn. Where two headings read alike, the source gives them in different places. Numbered stars: 1 amine (or outer) side, 2 acyl side, 3 side chain; on linkers, the order of the positions; unused ones are H or OH. Bridge positions count the residues as written; N and C are the ends. Square brackets hold non-standard residues; d marks the D form. Primed or numbered codes have the meaning given here. Peptide text beside a SMILES is read from it. * marks the point of attachment. MC″ = Monomer C = PyrR, pyrrolidine stapling residue bearing Alloc (allyl carbamate on pyrrolidine N); MB = Monomer B = PyrS, Alloc-pyrrolidine stapling residue (allyl carbamate on pyrrolidine N); 3Aminoazetidine3carboxyl = O=C(C1(N[*:1])CN([*:3])C1)[*:2]; dαMeOrn(Me) = CN(CCC[C@@](C)(N[*:1])C(=O)[*:2])[*:3]; dαMeDab(Me) = CN(CC[C@@](C)(N[*:1])C(=O)[*:2])[*:3]; αMeDab(Me) = CN(CC[C@](C)(N[*:1])C(=O)[*:2])[*:3]; Biotin = O=C1N[C@H]2[C@H](CS[C@H]2CCCCC(=O)*)N1; X3 = O=C([C@@]1(N[*:1])CCN([*:3])C1)[*:2]; X1 = O=C([C@]1(N[*:1])CCN([*:3])C1)[*:2]; PEG3′ = PEG3 linker, CAS# 557756-85-1; X2 = O=C(OCC=CCOC(=O)[*:2])[*:1]; R8 = C=CCCCCCC[C@@](C)(N)C(=O)O; S8 = C=CCCCCCC[C@](C)(N)C(=O)O; Aib = CC(C)(N)C(=O)O

B1: FP0006a (peptide)
peptide: Ac-PA[MC″]ILDAHV[S8]RVW-NH2
modifications: staple 3-10; also: amino staple: carbamate CO2 extruded after metathesis, staple: amino staple (-N(R')-, CO2 extruded from carbamate staple)

What was measured:
[1] = molecular target: T1, full-length beta-catenin (Axin site) (Homo sapiens, UniProt P35222); assay: Competition fluorescence polarization assay (Axin site probe); assay type: binding; settings: competition fluorescence polarization, Table 2; read-out: in vitro FP EC50
T1 construct: 15 nM full-length beta-catenin, 20 nM FITC labeled peptide in buffer
T1 sequence (P35222 1-781): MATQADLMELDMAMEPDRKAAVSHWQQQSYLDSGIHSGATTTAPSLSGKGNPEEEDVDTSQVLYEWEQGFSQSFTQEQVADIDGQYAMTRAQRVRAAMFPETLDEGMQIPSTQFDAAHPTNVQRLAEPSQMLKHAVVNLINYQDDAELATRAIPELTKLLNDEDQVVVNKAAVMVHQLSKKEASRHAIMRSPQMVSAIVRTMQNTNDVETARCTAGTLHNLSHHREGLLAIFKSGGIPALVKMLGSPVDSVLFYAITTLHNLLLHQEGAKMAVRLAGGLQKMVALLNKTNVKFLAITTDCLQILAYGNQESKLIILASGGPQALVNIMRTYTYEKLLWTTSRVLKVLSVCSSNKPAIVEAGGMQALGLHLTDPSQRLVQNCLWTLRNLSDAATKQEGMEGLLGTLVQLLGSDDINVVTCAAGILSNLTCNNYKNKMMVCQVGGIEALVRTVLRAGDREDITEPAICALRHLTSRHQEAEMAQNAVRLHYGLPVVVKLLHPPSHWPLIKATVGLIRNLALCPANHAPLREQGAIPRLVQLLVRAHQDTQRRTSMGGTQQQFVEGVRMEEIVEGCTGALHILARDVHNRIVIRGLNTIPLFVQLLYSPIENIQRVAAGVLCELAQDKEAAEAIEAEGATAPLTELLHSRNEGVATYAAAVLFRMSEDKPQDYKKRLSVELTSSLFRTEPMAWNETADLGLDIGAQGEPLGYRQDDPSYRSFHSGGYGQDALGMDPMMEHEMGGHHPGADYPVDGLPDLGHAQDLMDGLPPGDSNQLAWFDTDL
How it was run: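 Competition FP: 15 nM full-length β-catenin pre-incubated 5 min with 20 nM FITC-labelled stapled Axin-site peptide, then titrated peptide added (3-fold series from 5 μM) for 15 min in the dark. Buffer 50 mM Tris pH 8.0, 250 mM NaCl, 2% glycerol, 0.5 mM EDTA; duplicate reads.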

[2] = Solubility in DPBS (A280 of supernatant); assay type: physicochemical; settings: DPBS
Experimental: Suitable assays for assessing solubility are widely known in the art and can be utilized in accordance with the present disclosure. In some embodiments, in an exemplary protocol, dried peptide was reconstituted in DPBS (DPBS, 1×, cell culture grade, Sigma D8537) in triplicate, vortexed, sonicated and then centrifuged. Absorbance of the supernatant was measured at A280 (Nanodrop 2000) and the concentration was determined using the extinction coefficient for tryptophan. Exemplary solubility data are presented in, e.g., Table 2.

full-length beta-catenin = molecular target: T2, full-length beta-catenin (UniProt P35222 2-781, limits assumed); assay: competition FP, grade of FP EC50 (+++: <=100 nM)
T2 construct: mature; also called full-length ß-Catenin; β-catenin
T2 sequence (looked up): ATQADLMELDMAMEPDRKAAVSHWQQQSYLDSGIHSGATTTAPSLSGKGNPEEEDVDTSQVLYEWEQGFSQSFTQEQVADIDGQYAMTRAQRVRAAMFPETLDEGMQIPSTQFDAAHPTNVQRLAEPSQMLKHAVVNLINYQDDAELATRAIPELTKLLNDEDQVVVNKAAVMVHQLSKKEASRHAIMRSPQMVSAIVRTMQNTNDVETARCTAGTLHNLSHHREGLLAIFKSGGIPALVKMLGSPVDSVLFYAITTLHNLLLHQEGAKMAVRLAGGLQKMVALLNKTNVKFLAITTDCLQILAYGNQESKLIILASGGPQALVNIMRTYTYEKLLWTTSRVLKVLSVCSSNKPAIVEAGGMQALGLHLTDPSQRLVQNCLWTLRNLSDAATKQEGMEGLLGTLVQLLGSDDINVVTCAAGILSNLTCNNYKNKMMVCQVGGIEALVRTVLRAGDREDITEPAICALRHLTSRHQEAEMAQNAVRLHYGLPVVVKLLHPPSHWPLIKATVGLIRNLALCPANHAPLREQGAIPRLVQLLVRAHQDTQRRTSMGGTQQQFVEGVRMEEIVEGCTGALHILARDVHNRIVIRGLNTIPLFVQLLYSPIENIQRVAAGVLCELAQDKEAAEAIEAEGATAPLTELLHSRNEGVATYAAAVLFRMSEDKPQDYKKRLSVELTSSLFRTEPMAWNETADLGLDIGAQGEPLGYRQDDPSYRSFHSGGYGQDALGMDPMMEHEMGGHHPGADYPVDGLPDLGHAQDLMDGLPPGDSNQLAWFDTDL
Experimental: In some embodiments, a competition fluorescence polarization assay is used to assess binding of provided compounds to beta-catenin. In an exemplary procedure, solutions of provided compounds, e.g., provided stapled peptides, were prepared in a buffer (e.g., 50 mM Tris pH 8.0, 250 mM NaCl, 2% glycerol, 0.5 mM EDTA, 0.02% w/v sodium azide) using a 3-fold serial dilution from 5 µM. Probe solution (15 nM full-length ß-Catenin, 20 nM FITC labeled peptide in buffer) was prepared and incubated for a period of time, e.g., 5 minutes, and the a volume, e.g., 40 µL per well plated in suitable plate, e.g., a black polystyrene 384-well plate (Corning). Equal volume of the serial diluted peptide was added to the plate and incubated protected from light for 15 minutes prior to read. Reads were performed on a Spectramax M5 (Molecular Devices) in duplicate. Suitable probe was FITC-PEG1-PQ-S5-ILD-S5-HVRRVWR (SEQ ID NO: 1) (hydrocarbon staple formed by two S5 via olefin metathesis) and/or FITC-bA-PQ-S5-ILD-S5-HVRRVWR (SEQ ID NO: 3) (hydrocarbon staple formed by two S5 via olefin metathesis). […] Another peptide, FPO217c (Ac-AR_8ILDAHIM$B5$RVW (SEQ ID NO: 280), with N-terminal proline removed and valine replaced with isoleucine compared to FP0025c) was prepared.

[3] = Table 3 Part A, read-out: Solubility in DPBS

Molecule | EC50 [1] [nM] | solubility ([2]; Table 2, read-out: Solubility) [µM] | solubility [2, 3] [µM] | solubility thermodynamic [2, 3] [µM] | FP EC50 (full-length beta-catenin) [nM]
CC[C@H](C)[C@@H]1NC(=O)[C@H](Cc2c[nH]cn2)NC(=O)[C@H](C)NC(=O)[C@H](CC(=O)O)NC(=O)[C@H](CC(C)C)NC(=O)[C@H]([C@@H](C)CC)NC(=O)[C@](C)(NC(=O)[C@H](C)NC(C)=O)CCCN(C)C(=O)OCC=CCOC(=O)N(C)CC[C@](C)(C(=O)N[C@@H](CCCNC(=N)N)C(=O)N[C@H](C(=O)N[C@@H](Cc2c[nH]c3ccccc23)C(N)=O)C(C)C)NC1=O [FP0588c, Ac-A-MI-I-L-D-A-H-I-MG-R-V-W-NH2] (Ac-A[dαMeOrn(Me)]ILDAHI[dαMeDab(Me)]RVW-NH2; linker 2-9 via X2) | < 100 | 133 (≈ 219 µg/mL) | 133 (≈ 219 µg/mL) | – | –
CC[C@H](C)[C@@H]1NC(=O)[C@H](Cc2c[nH]cn2)NC(=O)[C@H](C)NC(=O)[C@H](CC(=O)O)NC(=O)[C@H](CC(C)C)NC(=O)[C@H]([C@@H](C)CC)NC(=O)[C@](C)(NC(=O)[C@H](C)NC(C)=O)CCN(C)C(=O)OCC=CCOC(=O)N(C)CC[C@@](C)(C(=O)N[C@@H](CCCNC(=N)N)C(=O)N[C@H](C(=O)N[C@@H](Cc2c[nH]c3ccccc23)C(N)=O)C(C)C)NC1=O [FP0594c, Ac-A-MG-I-L-D-A-H-I-MF-R-V-W-NH2] (Ac-A[dαMeDab(Me)]ILDAHI[αMeDab(Me)]RVW-NH2; linker 2-9 via X2) | 100 to 500 | 166 (≈ 271 µg/mL) | 166 (≈ 271 µg/mL) | – | –
CC[C@H](C)[C@@H]1NC(=O)[C@H](Cc2c[nH]cn2)NC(=O)[C@H](C)NC(=O)[C@H](CC(=O)O)NC(=O)[C@H](CC(C)C)NC(=O)[C@H]([C@@H](C)CC)NC(=O)[C@](C)(NC(=O)[C@H](C)NC(C)=O)CCN(C)C(=O)OCC=CCOC(=O)N2CC[C@](C(=O)N[C@@H](CCCNC(=N)N)C(=O)N[C@H](C(=O)N[C@@H](Cc3c[nH]c4ccccc34)C(N)=O)C(C)C)(C2)NC1=O [FP0598c, Ac-A-MG-I-L-D-A-H-I-MC-R-V-W-NH2] (Ac-A[dαMeDab(Me)]ILDAHI[X3]RVW-NH2; linker 2-9 via X2) | < 100 | – | – | 91 (≈ 147 µg/mL) | –
CC[C@H](C)[C@@H]1NC(=O)[C@H](Cc2c[nH]cn2)NC(=O)[C@H](C)NC(=O)[C@H](CC(=O)O)NC(=O)[C@H](CC(C)C)NC(=O)[C@H]([C@@H](C)CC)NC(=O)C2(NC(=O)[C@H](C)NC(C)=O)CN(C2)C(=O)OCC=CCOC(=O)N2CC[C@](C(=O)N[C@@H](CCCNC(=N)N)C(=O)N[C@H](C(=O)N[C@@H](Cc3c[nH]c4ccccc34)C(N)=O)C(C)C)(C2)NC1=O [FP0616c, Ac-A-MA-I-L-D-A-H-I-MC-R-V-W-NH2] (Ac-A[3Aminoazetidine3carboxyl]ILDAHI[X3]RVW-NH2; linker 2-9 via X2) | < 100 | 56 (≈ 88.7 µg/mL) | 56 (≈ 88.7 µg/mL) | – | –
CC[C@H](C)[C@@H]1NC(=O)[C@H](Cc2c[nH]cn2)NC(=O)[C@H](C)NC(=O)[C@H](CC(=O)O)NC(=O)[C@H](CC(C)C)NC(=O)[C@H]([C@@H](C)CC)NC(=O)C2(NC(=O)[C@H](C)NC(C)=O)CN(C2)C(=O)OCC=CCOC(=O)N2CC[C@@](C(=O)N[C@@H](CCCNC(=N)N)C(=O)N[C@H](C(=O)N[C@@H](Cc3c[nH]c4ccccc34)C(N)=O)C(C)C)(C2)NC1=O [FP0617c, Ac-A-MA-I-L-D-A-H-I-MB-R-V-W-NH2] (Ac-A[3Aminoazetidine3carboxyl]ILDAHI[X1]RVW-NH2; linker 2-9 via X2) | < 100 | 63 (≈ 99.8 µg/mL) | 63 (≈ 99.8 µg/mL) | – | –
CC[C@H](C)[C@@H]1NC(=O)[C@H](Cc2c[nH]cn2)NC(=O)[C@H](C)NC(=O)[C@H](CC(=O)O)NC(=O)[C@H](CC(C)C)NC(=O)[C@H]([C@@H](C)CC)NC(=O)[C@@](C)(NC(=O)[C@H](C)NC(C)=O)CCN(C)C(=O)OCC=CCOC(=O)N2CC[C@@](C(=O)N[C@@H](CCCNC(=N)N)C(=O)N[C@H](C(=O)N[C@@H](Cc3c[nH]c4ccccc34)C(N)=O)C(C)C)(C2)NC1=O [FP0626c, Ac-A-MF-I-L-D-A-H-I-MB-R-V-W-NH2] (Ac-A[αMeDab(Me)]ILDAHI[X1]RVW-NH2; linker 2-9 via X2) | < 100 | 40 (≈ 64.6 µg/mL) | 40 (≈ 64.6 µg/mL) | – | –
CC[C@H](C)[C@H](NC(=O)[C@H](Cc1c[nH]cn1)NC(=O)[C@H](C)NC(=O)[C@H](CC(=O)O)NC(=O)[C@H](CC(C)C)NC(=O)[C@@H](NC(=O)C(C)(C)NC(=O)[C@H](C)NC(C)=O)[C@@H](C)CC)C(=O)NC(C)(C)C(=O)N[C@@H](CCCNC(=N)N)C(=O)N[C@H](C(=O)N[C@@H](Cc1c[nH]c2ccccc12)C(N)=O)C(C)C [FP0628_aib, Ac-A-Aib-I-L-D-A-H-I-Aib-R-V-W-NH2] (Ac-A[Aib]ILDAHI[Aib]RVW-NH2) | 100 to 500 | 88 (≈ 124 µg/mL) | – | – | –
CC[C@H](C)[C@@H]1NC(=O)[C@H](Cc2c[nH]cn2)NC(=O)[C@H](C)NC(=O)[C@H](CC(=O)O)NC(=O)[C@H](CC(C)C)NC(=O)[C@H]([C@@H](C)CC)NC(=O)[C@](C)(NC(=O)[C@H](C)NC(C)=O)CCCCCCC=CCOC(=O)N2CC[C@@](C(=O)N[C@@H](CCCNC(=N)N)C(=O)N[C@](C)(C(=O)N[C@@H](Cc3c[nH]c4ccccc34)C(N)=O)C(C)C)(C2)NC1=O [FP0632c, Ac-A-R8-I-L-D-A-H-I-MB-R-aMeV-W-NH2] | 100 to 500 | 13 (≈ 20.8 µg/mL) | – | – | –
{Biotin-PEG3′}-A[R8]ILDAHI[MB]RVW-NH2 (staple 2-9) [FP0217c_btn] | – | – | – | – | ≤ 100
Ac-PA[MC″]ILDAHV[S8]RVW-NH2 (staple 3-10) [FP0005c] | – | – | – | – | ≤ 100
B1 | – | – | – | – | ≤ 100
